ChEMBL document CHEMBL1201861, “Genomics of Drug Sensitity in Cancer screening data, Wellcome Trust Sanger Institute”

Legend:
Test in all cases: cells
Type in all cases: functional, cell-based, Homo sapiens
[1] = test system: EVSA-T; settings: Homo sapiens, EVSA-T;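 note: growth inhibition of EVSA-T cells, read out with a cell viability assay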
Description: SANGER: Inhibition of human EVSA-T cell growth in a cell viability assay.

[2] = test system: Daudi; settings: Homo sapiens, Daudi;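 note: growth inhibition of Daudi cells, read out by a viability assay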
Description: SANGER: Inhibition of human Daudi cell growth in a cell viability assay.

[3] = test system: TE-15; settings: Homo sapiens, TE-15;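 note: cell viability readout of growth inhibition in TE-15 cells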
Description: SANGER: Inhibition of human TE-15 cell growth in a cell viability assay.

[4] = test system: NCI-H1436; settings: Homo sapiens, NCI-H1436;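 note: growth suppression of human NCI-H1436 cells, determined with a cell viability readout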
Description: SANGER: Inhibition of human NCI-H1436 cell growth in a cell viability assay.

[5] = test system: PF-382; settings: Homo sapiens, PF-382
Description: SANGER: Inhibition of human PF-382 cell growth in a cell viability assay.

[6] = test system: OPM-2; settings: Homo sapiens, OPM-2;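 note: growth of OPM-2 cells measured with a viability assay, IC50 for suppression of proliferation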
Description: SANGER: Inhibition of human OPM-2 cell growth in a cell viability assay.

[7] = test system: Kasumi 1; settings: Homo sapiens, Kasumi 1;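 note: growth inhibition of human Kasumi-1 cells, read out by a cell viability assay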
Description: SANGER: Inhibition of human KASUMI-1 cell growth in a cell viability assay.

[8] = test system: GDM-1; settings: Homo sapiens, GDM-1;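 note: cell viability readout used to measure growth inhibition of human GDM-1 cells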
Description: SANGER: Inhibition of human GDM-1 cell growth in a cell viability assay.

[9] = test system: BOKU; settings: Homo sapiens, BOKU;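 note: growth inhibition of the human BOKU cell line, read out by a cell viability assay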
Description: SANGER: Inhibition of human BOKU cell growth in a cell viability assay.

[10] = test system: EHEB; settings: Homo sapiens, EHEB;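 note: growth inhibition of human EHEB cells, read out with a cell viability assay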
Description: SANGER: Inhibition of human EHEB cell growth in a cell viability assay.

[11] = test system: NCI-H2141; settings: Homo sapiens, NCI-H2141;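 note: growth inhibition of human NCI-H2141 cells, read out with a cell viability assay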
Description: SANGER: Inhibition of human NCI-H2141 cell growth in a cell viability assay.

[12] = test system: COLO-679; settings: Homo sapiens, COLO-679
Description: SANGER: Inhibition of human COLO-679 cell growth in a cell viability assay.

[13] = test system: NCI-H2347; settings: Homo sapiens, NCI-H2347;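 note: growth inhibition of the cell line, read out with a cell viability assay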
Description: SANGER: Inhibition of human NCI-H2347 cell growth in a cell viability assay.

[14] = test system: Detroit 562; settings: Homo sapiens, Detroit 562;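 note: growth inhibition of human Detroit 562 cells, read out by a cell viability assay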
Description: SANGER: Inhibition of human Detroit562 cell growth in a cell viability assay.

[15] = test system: ZR-75-30; settings: Homo sapiens, ZR-75-30;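 note: growth inhibition of ZR-75-30 cells, measured with a cell viability readout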
Description: SANGER: Inhibition of human ZR-75-30 cell growth in a cell viability assay.

[16] = test system: T-24; settings: Homo sapiens, T-24;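 note: growth inhibition of T-24 cells, read out with a cell viability assay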
Description: SANGER: Inhibition of human T-24 cell growth in a cell viability assay.

[17] = test system: JEG-3; settings: Homo sapiens, JEG-3;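 note: growth inhibition of human JEG-3 cells, read out with a cell viability assay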
Description: SANGER: Inhibition of human JEG-3 cell growth in a cell viability assay.

[18] = test system: PFSK-1; settings: Homo sapiens, PFSK-1;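 note: cell viability assay measuring how strongly compounds suppress growth of human PFSK-1 cells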
Description: SANGER: Inhibition of human PFSK-1 cell growth in a cell viability assay.

[19] = test system: 8505C; settings: Homo sapiens, 8505C
Description: SANGER: Inhibition of human 8505C cell growth in a cell viability assay.

[20] = test system: Ca9-22; settings: Homo sapiens, Ca9-22;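 note: growth inhibition of Ca9-22 cells, read out with a cell viability assay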
Description: SANGER: Inhibition of human Ca9-22 cell growth in a cell viability assay.

[21] = test system: UMUC3; settings: Homo sapiens, UMUC3;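 note: growth inhibition of human UM-UC-3 cells, read out with a cell viability assay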
Description: SANGER: Inhibition of human UM-UC-3 cell growth in a cell viability assay.

[22] = test system: MCF7; settings: Homo sapiens, MCF7;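 note: growth inhibition of human MCF7 cells, read out with a cell viability assay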
Description: SANGER: Inhibition of human MCF7 cell growth in a cell viability assay.

[23] = test system: HuP-T3; settings: Homo sapiens, HuP-T3;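 note: HuP-T3 cell growth inhibition, read out with a cell viability assay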
Description: SANGER: Inhibition of human HuP-T3 cell growth in a cell viability assay.

[24] = test system: HSC-2; settings: Homo sapiens, HSC-2;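 note: growth inhibition of human HSC-2 cells, read out by a cell viability assay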
Description: SANGER: Inhibition of human HSC-2 cell growth in a cell viability assay.

[25] = test system: NCI-H596; settings: Homo sapiens, NCI-H596;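 note: growth inhibition of NCI-H596 cells, read out with a cell viability assay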
Description: SANGER: Inhibition of human NCI-H596 cell growth in a cell viability assay.

[26] = test system: UACC-893; settings: Homo sapiens, UACC-893
Description: SANGER: Inhibition of human UACC-893 cell growth in a cell viability assay.

[27] = test system: SW756; settings: Homo sapiens, SW756;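 note: growth inhibition of human SW756 cells, read out with a cell viability assay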
Description: SANGER: Inhibition of human SW756 cell growth in a cell viability assay.

[28] = test system: LK-2; settings: Homo sapiens, LK-2;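 note: growth inhibition of LK-2 cells, read out with a viability assay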
Description: SANGER: Inhibition of human LK-2 cell growth in a cell viability assay.

[29] = test system: NCI-H727; settings: Homo sapiens, NCI-H727;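 note: growth inhibition of human NCI-H727 cells, read out with a cell viability assay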
Description: SANGER: Inhibition of human NCI-H727 cell growth in a cell viability assay.

[30] = test system: 5637; settings: Homo sapiens
Description: SANGER: Inhibition of human 5637 cell growth in a cell viability assay.

[31] = test system: AN3-CA; settings: Homo sapiens, AN3-CA;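 note: growth inhibition of human AN3-CA cells measured by a cell viability assay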
Description: SANGER: Inhibition of human AN3-CA cell growth in a cell viability assay.

[32] = test system: KYSE-450; settings: Homo sapiens, KYSE-450;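 note: cell growth inhibition measured by a viability assay in human KYSE-450 cells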
Description: SANGER: Inhibition of human KYSE-450 cell growth in a cell viability assay.

[33] = test system: NCI-H630; settings: Homo sapiens, NCI-H630;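 note: growth inhibition of NCI-H630 cells, read out with a cell viability assay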
Description: SANGER: Inhibition of human NCI-H630 cell growth in a cell viability assay.

[34] = test system: DMS-273; settings: Homo sapiens, DMS-273
Description: SANGER: Inhibition of human DMS-273 cell growth in a cell viability assay.

[35] = test system: CAKI-1; settings: Homo sapiens, CAKI-1;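 note: growth inhibition of CAKI-1 cells, measured by a cell viability assay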
Description: SANGER: Inhibition of human CAKI-1 cell growth in a cell viability assay.

[36] = test system: NCI-H1437; settings: Homo sapiens, NCI-H1437;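 note: growth inhibition of human NCI-H1437 cells, read out by a cell viability assay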
Description: SANGER: Inhibition of human NCI-H1437 cell growth in a cell viability assay.

[37] = test system: NCI-H1651; settings: Homo sapiens, NCI-H1651;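 note: Read-out is a cell viability assay, with IC50 expressing inhibition of NCI-H1651 cell growth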
Description: SANGER: Inhibition of human NCI-H1651 cell growth in a cell viability assay.

[38] = test system: KNS-62; settings: Homo sapiens, KNS-62;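 note: inhibition of cell growth, read out with a cell viability assay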
Description: SANGER: Inhibition of human KNS-62 cell growth in a cell viability assay.

[39] = test system: NCI-H661; settings: Homo sapiens, NCI-H661;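 note: cell viability assay read-out, IC50 being the concentration that inhibits growth of the cells by half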
Description: SANGER: Inhibition of human NCI-H661 cell growth in a cell viability assay.

[40] = test system: SCC-25; settings: Homo sapiens, SCC-25;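 note: growth inhibition of SCC-25 cells, measured with a cell viability assay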
Description: SANGER: Inhibition of human SCC-25 cell growth in a cell viability assay.

[41] = test system: ChaGo-K-1; settings: Homo sapiens, ChaGo-K-1;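 note: growth inhibition of ChaGo-K-1 cells, read out with a cell viability assay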
Description: SANGER: Inhibition of human ChaGo-K-1 cell growth in a cell viability assay.

[42] = test system: HCC1806; settings: Homo sapiens, HCC1806;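 note: growth inhibition of the cancer cell line, determined with a cell viability assay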
Description: SANGER: Inhibition of human HCC1806 cell growth in a cell viability assay.

[43] = test system: HGC-27; settings: Homo sapiens, HGC-27;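 note: growth inhibition of human HGC-27 cells, read out in a cell viability assay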
Description: SANGER: Inhibition of human HGC-27 cell growth in a cell viability assay.

[44] = test system: RO82-W-1; settings: Homo sapiens, RO82-W-1;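 note: growth inhibition of human RO82-W-1 cells, measured with a cell viability assay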
Description: SANGER: Inhibition of human RO82-W-1 cell growth in a cell viability assay.

[45] = test system: Hs-578T; settings: Homo sapiens, Hs-578T
Description: SANGER: Inhibition of human Hs-578-T cell growth in a cell viability assay.

[46] = test system: PANC-03-27; settings: Homo sapiens, PANC-03-27
Description: SANGER: Inhibition of human PANC-03-27 cell growth in a cell viability assay.

[47] = test system: SW626; settings: Homo sapiens, SW626;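 note: growth inhibition of SW626 cells, measured with a cell viability assay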
Description: SANGER: Inhibition of human SW626 cell growth in a cell viability assay.

[48] = test system: KYSE-70 cell line; settings: Homo sapiens, KYSE-70;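 note: cell viability assay read-out, with IC50 expressing suppression of KYSE-70 cell growth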
Description: SANGER: Inhibition of human KYSE-70 cell growth in a cell viability assay.

[49] = test system: NCI-H1703; settings: Homo sapiens, NCI-H1703;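 note: growth inhibition of NCI-H1703 cells, read out via a cell viability assay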
Description: SANGER: Inhibition of human NCI-H1703 cell growth in a cell viability assay.

## COc1cc(-c2nn([C@H]3CC[C@H](N4CCN(C(C)=O)CC4)CC3)c3ncnc(N)c23)ccc1NC(=O)c1cc2ccccc2n1C
[1]
  IC50: > 5120 nM
[2]
  IC50: > 5120 nM
[3]
  IC50: 279 nM
[4]
  IC50: 3190 nM
[5]
  IC50: > 5120 nM
[6]
  IC50: > 5120 nM
[7]
  IC50: > 5120 nM
[8]
  IC50: > 5120 nM
[9]
  IC50: > 5120 nM
[10]
  IC50: > 5120 nM
[11]
  IC50: > 5120 nM

## COc1cc2c(Nc3ccc(NC(=O)c4ccccc4)cc3)ncnc2cc1OCCCN1CCOCC1
[12]
  IC50: > 4000 nM
[13]
  IC50: > 4000 nM
[14]
  IC50: 1730 nM
[15]
  IC50: > 4 µM
[16]
  IC50: > 4000 nM
[17]
  IC50: > 4000 nM
[18]
  IC50: > 4000 nM
[19]
  IC50: > 4000 nM
[20]
  IC50: 3.29 µM
[21]
  IC50: > 4000 nM
[22]
  IC50: > 4000 nM
[23]
  IC50: > 4000 nM
[24]
  IC50: > 4000 nM
[25]
  IC50: > 4000 nM
[26]
  IC50: > 4000 nM
[27]
  IC50: > 4000 nM
[28]
  IC50: 1650 nM
[29]
  IC50: > 4000 nM
[30]
  IC50: > 4000 nM
[31]
  IC50: > 4000 nM
[32]
  IC50: > 4000 nM
[33]
  IC50: > 4000 nM
[34]
  IC50: > 4000 nM
[35]
  IC50: > 4000 nM
[36]
  IC50: > 4000 nM
[37]
  IC50: 3.74 µM
[38]
  IC50: > 4 µM
[39]
  IC50: 2990 nM
[40]
  IC50: > 4000 nM
[41]
  IC50: > 4000 nM
[42]
  IC50: > 4000 nM
[43]
  IC50: > 4000 nM
[44]
  IC50: > 4000 nM
[45]
  IC50: > 4000 nM
[46]
  IC50: > 4000 nM
[47]
  IC50: > 4000 nM
[48]
  IC50: > 4000 nM

## N#Cc1c(O)c2c(-c3ccc(-c4ccccc4O)cc3)csc2[nH]c1=O
[1]
  IC50: 381 nM
[2]
  IC50: 49.8 nM
[12]
  IC50: > 1020 nM
[3]
  IC50: > 1020 nM
[13]
  IC50: > 1020 nM
[14]
  IC50: > 1020 nM
[4]
  IC50: 590 nM
[16]
  IC50: > 1020 nM
[17]
  IC50: > 1020 nM
[18]
  IC50: > 1020 nM
[19]
  IC50: > 1020 nM
[20]
  IC50: > 1.02 µM
[21]
  IC50: > 1020 nM
[5]
  IC50: 85.9 nM
[22]
  IC50: > 1020 nM
[23]
  IC50: > 1020 nM
[24]
  IC50: > 1020 nM
[6]
  IC50: 218 nM
[25]
  IC50: > 1020 nM
[26]
  IC50: > 1020 nM
[49]
  IC50: > 1020 nM
[27]
  IC50: > 1020 nM
[28]
  IC50: > 1020 nM
[29]
  IC50: > 1020 nM
[7]
  IC50: 41.8 nM
[30]
  IC50: > 1020 nM
[31]
  IC50: > 1020 nM
[32]
  IC50: > 1020 nM
[33]
  IC50: > 1020 nM
[34]
  IC50: > 1020 nM
[35]
  IC50: > 1020 nM
[36]
  IC50: > 1020 nM
[37]
  IC50: > 1.02 µM
[39]
  IC50: > 1020 nM
[40]
  IC50: > 1020 nM
[8]
  IC50: 25.5 nM
[41]
  IC50: > 1020 nM
[9]
  IC50: > 1020 nM
[42]
  IC50: > 1020 nM
[10]
  IC50: 63.3 nM
[43]
  IC50: > 1020 nM
[44]
  IC50: > 1020 nM
[11]
  IC50: 633 nM
[45]
  IC50: > 1020 nM
[46]
  IC50: > 1020 nM
[47]
  IC50: > 1020 nM
[48]
  IC50: > 1020 nM

## Cc1ccc(-c2c(C(=O)CCl)n(CCCO)c3ncnc(N)c23)cc1
[1]
  IC50: 2400 nM
[2]
  IC50: > 4000 nM
[3]
  IC50: 1820 nM
[4]
  IC50: > 4000 nM
[5]
  IC50: 1220 nM
[6]
  IC50: > 4000 nM
[7]
  IC50: > 4000 nM
[8]
  IC50: > 4000 nM
[9]
  IC50: > 4000 nM
[10]
  IC50: > 4000 nM
[11]
  IC50: > 4000 nM

## COc1cc2ncn(-c3cc(OCc4ccccc4C(F)(F)F)c(C(N)=O)s3)c2cc1OC [GW843682X]
[1]
  IC50: 237 nM
[2]
  IC50: 34.7 nM
[3]
  IC50: 10.8 nM
[4]
  IC50: > 256 nM
[5]
  IC50: 33.4 nM
[6]
  IC50: 44.2 nM
[7]
  IC50: > 256 nM
[8]
  IC50: 50.8 nM
[9]
  IC50: 135 nM
[10]
  IC50: > 256 nM
[11]
  IC50: 159 nM
